Bounds are passed on as bounds.

The test system of data set [1] is melanoma, renal cell carcinoma, and ovarian cancer. Particulars: including decreased metastasis and increased overall survival; cited from earlier work.
For data set [2] the following is noted: subcutaneous injection; cited from earlier work.
A short description of data set [3]: Solubility of X4P-001 as a function of pH. The class given is physicochemical.
A further data set can be described thus: in vivo. On the procedure: In certain embodiments, the dosage composition may be provided twice a day in divided dosage, approximately 12 hours apart. In other embodiments, the dosage composition may be provided once daily. […] Dosage for oral administration may be from about 100 mg to about 1200 mg once or twice per day.
The conditions of data set [4]: oral administration, healthy volunteers and HIV patients; cited from earlier work.
For data set [5], the system named is advanced clear-cell renal-cell carcinoma. The settings on record: cited from earlier work; for objective response rate: patients after one or two antiangiogenic regimens, nivolumab 3 mg/kg iv every two weeks or everolimus 10 mg orally daily, P<0.001.
[6] abbreviates: nivolumab compared to everolimus.

As for `c1cc(CN2CCCNCCNCCCNCC2)ccc1CN1CCCNCCNCCCNCC1` [Plerixafor, reference compound], in data set [1], the anti-tumor activity entry is “significant anti-tumor activity”. In addition, the half life result in data set [2] is reported as “very short”.
In turn, `NCCCCN(Cc1nc2ccccc2[nH]1)[C@H]1CCCc2cccnc21` [X4P-001] displayed a solubility in data set [3] (aqueous buffer, pH range 3.0 to 8.0 (freely soluble)) of more than 100 mg/mL. In addition, the Solubility in water result in data set [3] (water) is “only slightly soluble”. For the same molecule, the terminal half-life result in “in vivo” is reported as “approximately 14.5 hrs”. In addition, the half-life in “in vivo” (terminal half-life) fell in the range of 12 to 24 h. For the same molecule, in data set [4], the “pharmacodynamic activity: circulating white blood cells (WBCs)” value was “dose- and concentration-related changes”; the “volume of distribution (VL)” value is “high”. Further, the anti-tumor activity entry in data set [1] is recorded as “significant anti-tumor activity”.
For `CO[C@H]1C[C@@H]2CC[C@@H](C)[C@@](O)(O2)C(=O)C(=O)N2CCCC[C@H]2C(=O)O[C@H]([C@H](C)C[C@@H]2CC[C@@H](OCCO)[C@H](OC)C2)CC(=O)[C@H](C)/C=C(\C)[C@@H](O)[C@@H](OC)C(=O)[C@H](C)C[C@H](C)/C=C/C=C/C=C/1C` [everolimus], the objective response rate in data set [5] is on record as 5%.
Consider “nivolumab: human IgG4 anti-PD-1 monoclonal antibody”, for which, in data set [5] (setting [6]), the “incidence of Grade 3 or 4 treatment-related adverse events” value was “lower incidence” and the median overall survival entry is reported as “longer”. For the same molecule, the objective response rate in data set [5] was 25%.

(Values after patent US11337969B2, “Methods for treating cancer” (X4 Pharmaceuticals, Inc., priority 2016, dated 2022).)
